Reference: US9468621B2, “Metal-salen complex compound responsive drug and intra-corporeal behavior control system for metal-salen complex compound” (IHI Corporation, priority 2011, dated 2016)
pEC50: −log10 of the molar value. Read-outs that look alike come from different tables or passages of the source.

Experiments:
[1] = Calcein AM fluorescence (RFU) assay of chelation of the ferrous-salen complex compound by a metal chelating agent; format: biochemical; conditions: for pEC50: Calcein AM, FIG. 1, read-out: EC50 (50% effective concentration of a maximum reaction value) of chelator, RFU recovery
Description: If calcein (Calcein: fluorescent indicator) is used solely, it emits light (an RFU value increases); however, if calcein binds with a ferrous-salen complex compound, light emission diminishes (the RFU value decreases). Accordingly, if deferoxamine (deferoximine: the above-mentioned structural formula (II)) exists, iron ions of the ferrous-salen complex compound are adsorbed by the deferoxamine and ferrous-salen ligands are detached from calcein. As a result, the amount of the calcein-divalent-iron-salen complex compound decreases and the light emission […]. You can tell that as an amount of emitted light […], the metal-salen complex compound combines with the metal chelating agent.
The ferrous-salen complex compound (M=Fe, R═R′═H) indicated as the aforementioned structural formula (III) was produced based on descriptions of WO 2010/058280. […] Subsequently, 15 μM deferoxamine was administered to this ferrous-salen complex compound—calcein AM complex—and measurement was performed one hour later by using a measuring device (parkinermar ARVO) (λexc=485 nm, λem=520 nm).
A 15 μM of deferoxamine and vitamin C was administered to the ferrous-salen complex compound—calcein AM complex—which was produced in Example 1 above and measurement was performed one hour later by using the measuring device (parkinermar ARVO) (λexc=485 nm, λem=520 nm). As a result, it was also confirmed that when the ferrous-salen complex compound was added to Calcein AM, the RFU (Relative Fluorescent Unit) value was low. However, it was confirmed that when the chelator (deferoxamine and vitamin C) continued to be added, the RFU value increased.

[2] = tested on: POS-1 cells (mouse osteosarcoma cells); experiment: MTT cell survival assay: neutralizing cytotoxicity of the ferrous-salen complex compound; format: cell-based; conditions: 24 hours
Procedure: The cells were collected 24 hours later and an MTT reagent for cell survival assay was administered, 400 μL of 0.04-mol of HCl/isopropyl alcohol was added 45 minutes later, 100 μL of the obtained mixture was dispensed to 96-well plates, and absorbance at 570 nm was measured, thereby calculating cell viability.
The cells were collected 24 hours later and the MTT reagent for cell survival assay was administered, 400 μL of 0.04-mol of HCl/isopropyl alcohol was added 45 minutes later, 100 μL of the obtained mixture was dispensed to 96-well plates, and absorbance at 570 nm was measured, thereby calculating cell viability.

[Fe+2].[O-]c1ccccc1C=NCCN=Cc1ccccc1[O-] [ferrous-salen complex compound]
RFU (Relative Fluorescent Unit) value when added to Calcein AM ([1]; ferrous-salen complex compound added to Calcein AM, no chelator): low
cell viability ([2]; 7.5 μM, control = 100%, FIG. 2): decreased

O=C(O)c1ccc(-n2nc(-c3ccccc3O)nc2-c2ccccc2O)cc1 [deferasirox, 4-[3,5-Bis(2-hydroxyphenyl)-1,2,4-triazol-1-yl]benzoic acid]
cell viability as chelator concentration increased (neutralization of toxicity) ([2]; 7.5 μM ferrous-salen complex compound (NBEI) plus deferasirox 0.1-15 μM, FIG. 2): increased
deferasirox concentration at which the effect on cell viability did not change further ([2]; 7.5 μM ferrous-salen complex compound (NBEI)): ≥ 1.8 µM

CC(=O)N(O)CCCCCNC(=O)CCC(=O)N(O)CCCCCNC(=O)CCC(=O)N(O)CCCCCN [deferoxamine, (N-(5-aminopentyl)-N-hydroxy-N′-[5-(N-hydroxy-3-{[5-(N-hydroxyacetamido)pentyl]carbamoyl}propanamido)pentyl]butanediamide)]
RFU (Relative Fluorescent Unit) value when the chelator continued to be added ([1]; chelator added to ferrous-salen complex compound-calcein AM complex, measured one hour later, λexc=485 nm, λem=520 nm): increased
pEC50 ([1]; ferrous-salen complex compound (NBEI) 10 μM): 6.01
pEC50 ([1]; ferrous-salen complex compound (NBEI) 50 μM): 5.79
